Measured values from paper PMC11436024, “E-Cyanoacrylamides and 5-Imino Pyrrolones against Trypanosoma cruzi: Activity and Induced Mechanisms of Cell Death” (Tropical Medicine and Infectious Disease, 2024).

Columns and labels:
[1] = system: epimastigote form of T. cruzi; experiment: In vitro epimastigote activity assay (alamarBlue); format: cell-based, Trypanosoma cruzi strain Y; details: for IC50: epimastigote form of T. cruzi, 72 h incubation at 26 °C, mean ± standard deviation; for SI (selectivity index, CC50/IC50): against the epimastigote form of T. cruzi, CC50 murine macrophages
Description: This assay is based on the use of alamarBlue. The alamarBlue reagent contains resazurin, which emits blue fluorescence under normal conditions. However, when the parasites are still alive and in contact with cell metabolism, the reagent is reduced to resorufin, which emits pink fluorescence.
In 96-well plates, serial dilutions of each compound were added with parasites at a concentration of 10^6 cells/mL in a final volume of 200 µL. Finally, 10% alamarBlue reagent was added, with 20 µL per well.
After 72 h of incubation at 26 °C, the plate was introduced into the plate reader and the fluorescence (570 nm excitation, 585 nm emission) of each well was determined using the EnSpire Multimode Plate Reader® (PerkinElmer, Thermo Fischer Scientific, Madrid, Spain). Finally, using a non-linear regression analysis in Graphpad Prism 9.0.0. the inhibitory concentration 50 (IC50) was calculated.
Inhibitory and cytotoxic concentrations (IC50, IC90, and CC50) were determined in duplicate on three different days using non-linear regression [Inhibitor] vs. response variable slope (four parameters) using non-linear regression analysis with 95% confidence, using GraphPad Prism 10.1.1 statistical software. The analysis was developed using Tukey’s test, considering significant values of p < 0.05. ANOVA analysis was also performed using GraphPad Prism 10.1.1.

[2] = system: Murine macrophages J774.A1; experiment: Cytotoxicity assay (alamarBlue); format: cell-based; details: for IC50 (cytotoxic concentration 50, CC50): 24 h
Description: Murine macrophages J774.A1 strain ATCC #TIB-67, acquired from American Type Culture Collection (ATTC, LGC Promochem, Barcelona, Spain), were cultured in DMEM medium and maintained at 37 °C and 5% CO2. This assay followed the same principle as the previous one, but in this case, macrophages were used instead of parasites to determine the toxicity of the compounds. A total of 50 μL with a concentration of 2 × 10^5 cells/mL was added to each well with serial dilutions of the compounds in 50 μL of RPMI medium. After this, 10% of alamarBlue™ reagent was added and the plate was incubated at 37 °C and 5% CO2 for 24 h. After this time, the fluorescence was read using the EnSpire Multimode Plate Reader® and the cytotoxic concentration 50 (IC50) was calculated. Inhibitory and cytotoxic concentrations (IC50, IC90, and CC50) were determined in duplicate on three different days using non-linear regression [Inhibitor] vs. response variable slope (four parameters) using non-linear regression analysis with 95% confidence, using GraphPad Prism 10.1.1 statistical software. The analysis was developed using Tukey’s test, considering significant values of p < 0.05. ANOVA analysis was also performed using GraphPad Prism 10.1.1.

[3] = system: amastigote form of T. cruzi; experiment: In vitro amastigote activity assay (alamarBlue, intracellular parasites in macrophages); format: cell-based, Trypanosoma cruzi; details: for IC50: Trypanosoma cruzi, Macrophage, amastigote form of T. cruzi in macrophages, 24 h with compound at 37 °C, mean ± standard deviation; for SI (selectivity index, CC50/IC50): against the amastigote form of T. cruzi, CC50 murine macrophages
Description: To perform the assay against the intracellular form of the parasite, the same colorimetric method based on the alamarBlue was developed. To produce the internalization of the parasites, an excess of epimastigote forms were added (10^5:10^4 parasites/macrophages in 100 µL of DMEM) to a 96-well plate for 24 h at 37 °C. Then, the wells were washed 3 times to eliminate the non-internalized parasites, and the serial dilutions of the compounds were added and dissolved in DMEM medium. After another incubation of 24 h at 37 °C, the drugs were eliminated and the cells were lysed with 0.05% SDS for 30 s. After adding LIT in a final volume of 200 µL and 10% of alamarBlue™ reagent, the plates were incubated for 96 h to promote the externalization of the parasites. Finally, the fluorescence was read using the EnSpire Multimode Plate Reader® and the inhibitory concentration 50 (IC50) was calculated. Inhibitory and cytotoxic concentrations (IC50, IC90, and CC50) were determined in duplicate on three different days using non-linear regression [Inhibitor] vs. response variable slope (four parameters) using non-linear regression analysis with 95% confidence, using GraphPad Prism 10.1.1 statistical software. The analysis was developed using Tukey’s test, considering significant values of p < 0.05. ANOVA analysis was also performed using GraphPad Prism 10.1.1.

[4] = system: L3 larvae of Culex pipiens; experiment: Larvicidal (in vivo toxicity) assay against mosquito larvae
Description: The L3 larvae from Culex pipiens, used in the cytotoxicity assay, were cultured at the Laboratorio de Entomología Médica of the Instituto Universitario de Enfermedades Tropicales y Salud Pública de Canarias in Tenerife, Spain.
For this purpose, 3 mL of sterile water with food for 48 h was added to 24-well plates, following WHO guidelines of necessary nutrients. In each well, one L3 larva of Culex pipiens was added, together with different concentrations of the compounds to be tested (IC90 and two times IC90). In addition, negative controls, without treatment and with the maximum amount of DMSO added in the treatments, and positive controls, benznidazole as the reference treatment and triton, previously reported to be toxic to larvae, were added. All experiments were performed in duplicate and repeated on 3 different days, observing larval viability at different times (1, 3, 12, 24, and 48 h after the start of treatment).

[5] = system: Trypanosoma cruzi parasites; experiment: Induction of cell death mechanisms (ATP, SYTOX Green, JC-1, Hoechst/PI, CellROX); format: cell-based; details: parasites incubated 24 h with the IC90 of the compounds
Description: To observe these events, parasites were incubated for 24 h with the IC90 of the compounds. After that, the plate was centrifuged at 3000 rpm at 4 °C for 10 min to remove the supernatant. The pellet was then resuspended in buffer and the different kits were added following the manufacturer’s instructions. CellTiter-Glo® Luminescent Cell Viability Assay was used to determine the ATP levels of the parasitic cells. This kit contains luciferin upon contact with cell metabolism, oxidises to oxyluciferin and emitting luminescence. The procedure was as follows: after 24 h of incubation and centrifugation, the pellet was resuspended in 25 μL of buffer and mixed with 25 μL of CellTiter-Glo® in the dark, shaking for 2 min. Then, after 15 min of incubation at room temperature, the luminescence was read in the EnSpire Multimode Plate Reader® [20]. In PCD, there is an alteration in the permeability of the plasma membrane, but the cell structure is maintained. The SYTOX™ Green Stain (Thermo Fischer Scientific, Madrid, Spain) only penetrates cells with increased plasma permeability. Once inside the cell, it will bind to the DNA and emit green fluorescence. After incubation and centrifugation, the pellet was resuspended in 50 μL of buffer and the reagent was added at a concentration of 1 μM. […]

[6] = murine macrophages, mean ± standard deviation
[7] = 2IC90 (two times IC90) of compound, 1 h
[8] = 2IC90 (two times IC90) of compound, 3 h
[9] = 2IC90 (two times IC90) of compound, 12 h
[10] = 2IC90 (two times IC90) of compound, 24 h
[11] = 2IC90 (two times IC90) of compound, 48 h

Compound: N#C/C=C/C(=O)Nc1ccccc1 [A]
- IC50 ([1]; Trypanosoma cruzi, 72 h): 18.7 ± 1.9 µM
- SI (selectivity index, CC50/IC50) [1]: 5.1
- IC50 (cytotoxic concentration 50, CC50) [2, 6]: 94.78 ± 23.11 µM

Compound: N=C1C=CC(=O)N1c1ccccc1 [B]
- IC50 ([1]; Trypanosoma cruzi, 72 h): < 10 µM
- IC50 [1]: 6.91 ± 1.33 µM
- IC50 [3]: 10.8 ± 2.11 µM
- SI (selectivity index, CC50/IC50) [3]: 10.9
- IC50 (cytotoxic concentration 50, CC50) [2, 6]: 118.07 ± 11.90 µM
- larval viability [4, 7]: Alive
- larval viability [4, 8]: Alive
- larval viability [4, 9]: Alive
- larval viability [4, 10]: Alive
- larval viability [4, 11]: Alive
- larval viability ([4]; IC90 of compound, 1 h): Alive
- larval viability ([4]; IC90 of compound, 3 h): Alive
- larval viability ([4]; IC90 of compound, 12 h): Alive
- larval viability ([4]; IC90 of compound, 24 h): Alive
- larval viability ([4]; IC90 of compound, 48 h): Alive
- type of cell death produced [5]: late phase of this type of cell death

Compound: O=C(Cn1ccnc1[N+](=O)[O-])NCc1ccccc1 [Benznidazole, reference compound]
- IC50 ([1]; Trypanosoma cruzi, 72 h): 6.92 ± 0.77 µM
- SI (selectivity index, CC50/IC50) [1]: 57.8
- IC50 [3]: 2.67 ± 0.39 µM
- SI (selectivity index, CC50/IC50) [3]: 149.8
- IC50 (cytotoxic concentration 50, CC50) [2, 6]: 399.91 ± 1.40 µM
- larval viability [4, 7]: Alive
- larval viability [4, 8]: Alive
- larval viability [4, 9]: Alive
- larval viability [4, 10]: Alive
- larval viability [4, 11]: Alive
- larval viability ([4]; IC90 of compound, 1 h): Alive
- larval viability ([4]; IC90 of compound, 3 h): Alive
- larval viability ([4]; IC90 of compound, 12 h): Alive
- larval viability ([4]; IC90 of compound, 24 h): Alive
- larval viability ([4]; IC90 of compound, 48 h): Alive

Compound: N#C/C=C/C(=O)NCc1ccccc1 [C]
- IC50 ([1]; Trypanosoma cruzi, 72 h): 18.8 ± 2.03 µM
- IC50 [3]: 24.1 ± 6.22 µM
- SI (selectivity index, CC50/IC50) [3]: 8.6
- IC50 (cytotoxic concentration 50, CC50) [2, 6]: 208.01 ± 13.44 µM
- larval viability [4, 7]: Alive
- larval viability [4, 8]: Alive
- larval viability [4, 9]: Alive
- larval viability [4, 10]: Alive
- larval viability [4, 11]: Alive
- larval viability ([4]; IC90 of compound, 1 h): Alive
- larval viability ([4]; IC90 of compound, 3 h): Alive
- larval viability ([4]; IC90 of compound, 12 h): Alive
- larval viability ([4]; IC90 of compound, 24 h): Alive
- larval viability ([4]; IC90 of compound, 48 h): Alive

Compound: N=C1C=CC(=O)N1Cc1ccccc1 [D]
- IC50 ([1]; Trypanosoma cruzi, 72 h): 12.4 ± 1.49 µM
- SI (selectivity index, CC50/IC50) [1]: 6.9
- IC50 (cytotoxic concentration 50, CC50) ([2]; mouse): 85.32 ± 3.71 µM

Compound: COc1ccc(CNC(=O)/C=C/C#N)cc1 [E]
- IC50 ([1]; Trypanosoma cruzi, 72 h): > 100 µM
- SI (selectivity index, CC50/IC50) [1]: <3.2
- IC50 (cytotoxic concentration 50, CC50) [2, 6]: 319.61 ± 60.22 µM

Compound: COc1ccc(CN2C(=N)C=CC2=O)cc1 [F]
- SI (selectivity index, CC50/IC50) [1]: 0.8
- IC50 (cytotoxic concentration 50, CC50) ([2]; mouse): 2.82 ± 1.39 µM

Compound: COc1ccc(NC(=O)/C=C/C#N)cc1 [G]
- IC50 ([1]; Trypanosoma cruzi, 72 h): 20.7 ± 2.66 µM
- IC50 [3]: 10.6 ± 3.05 µM
- SI (selectivity index, CC50/IC50) [3]: 25.2
- IC50 (cytotoxic concentration 50, CC50) [2, 6]: 266.62 ± 42.48 µM
- larval viability [4, 7]: Alive
- larval viability [4, 8]: Alive
- larval viability [4, 9]: Alive
- larval viability [4, 10]: Alive
- larval viability [4, 11]: Alive
- larval viability ([4]; IC90 of compound, 1 h): Alive
- larval viability ([4]; IC90 of compound, 3 h): Alive
- larval viability ([4]; IC90 of compound, 12 h): Alive
- larval viability ([4]; IC90 of compound, 24 h): Alive
- larval viability ([4]; IC90 of compound, 48 h): Alive

Compound: COc1ccc(N2C(=N)C=CC2=O)cc1 [H]
- SI (selectivity index, CC50/IC50) [1]: 0.9
- toxicity of Z isomer relative to E isomer (times more toxic) ([2]; G–H isomer pair, murine macrophages): 100
- IC50 (cytotoxic concentration 50, CC50) [2, 6]: 2.42 ± 1.58 µM

Compound: Triton [reference compound]
- larval viability ([4]; 0.01%, 1 h): Alive
- larval viability ([4]; 0.01%, 3 h): Alive
- larval viability ([4]; 0.01%, 12 h): Dead
- larval viability ([4]; 0.01%, 24 h): Dead
- larval viability ([4]; 0.01%, 48 h): Dead
- larval viability ([4]; 0.5%, 1 h): Alive
- larval viability ([4]; 0.5%, 3 h): Dead
- larval viability ([4]; 0.5%, 12 h): Dead
- larval viability ([4]; 0.5%, 24 h): Dead
- larval viability ([4]; 0.5%, 48 h): Dead
- larval viability ([4]; 1%, 1 h): Dead
- larval viability ([4]; 1%, 3 h): Dead
- larval viability ([4]; 1%, 12 h): Dead
- larval viability ([4]; 1%, 24 h): Dead
- larval viability ([4]; 1%, 48 h): Dead
